Results as given in patent US8465921B2, “Hybridization and mismatch discrimination using oligonucleotides conjugated to minor groove binders” (Elitech Holding B.V., priority 1995, dated 2013).

Legend:
[1] = test system: complementary oligonucleotide; test: Thermal denaturation of hybrids of ODNs and MGB-ODN conjugates with their complements (Table 6); assay type: binding; conditions: 2 μM ODN, 1:1 with complement; 140 mM KCl, 10 mM MgCl2, 20 mM HEPES-HCl (pH 7.2); 0.5° C./min
Description: Hybrids formed between MGB-oligonucleotide conjugates or unmodified oligonucleotides and their complements were melted at a rate of 0.5° C./min in 140 mM KCl, 10 mM MgCl2 and 20 mM HEPES-HCl (pH 7.2) on a Lambda 2S (Perkin Elmer) spectrophotometer with a PTP-6 automatic multicell temperature programmer. Each oligonucleotide (2 μM) was mixed with sufficient complementary oligonucleotide to give a 1:1 ratio. Prior to melting, samples were denatured at 100° C. and then cooled to the starting temperature over a 10 min period. The melting temperatures (Tm) of the hybrids were determined from the derivative maxima and collected in Table 6. In the “sequence” column of Table 6, MGB refers to the presence of CDPI3 conjugated through a hexylamine linker esterified to the 5′-phosphate group of the oligonucleotide (see FIG. 2).

[2] = test system: E. coli supF gene contained in the plasmid pSP189; test: Hydrolyzable probe assay with ppG-substituted 15-mer probe (Example 3); assay type: biochemical; conditions: annealing/elongation at 75° C. (FIG. 6)
Text: Further increases in discriminatory ability of a MGB-oligonucleotide conjugate are obtained when the conjugate also contains a pyrazolo[3,4-d]pyrimidine nucleotide analogue. In this system, the target sequence is located in the E. coli supF gene contained in the plasmid pSP189 (FIG. 5, SEQ ID No.: 40). See Parris et al. (1992) Gene 117: 1-5. Binding sites for the primers used for amplification are indicated as Primer 1 and Primer 2, with Primer 1 having a sequence and polarity that is identical to that shown in FIG. 5, and Primer 2 having a sequence and polarity that is the reverse complement to that shown in FIG. 5. A 15-mer probe, labeled with fluorescein at the 5′-end, and with TAMRA and CDPI3 at the 3′-end, was designed to be complementary to a region within the approximately 375 nucleotides between the primers, as indicated in FIG. 5. This probe was tested using a series of templates, each containing a different single-nucleotide mismatch with the probe sequence, as shown in FIG. 5 and described infra.
The 15-nucleotide region of the template that is complementary to the probe used in this study was modified to generate a series of point mutations, as shown in FIG. 5. Each of the mutant templates was used in a separate assay with the 15-mer probe. The mutant sequences within this region of the template were as follows, with the mismatched nucleotide indicated by bold underlining: […]

[3] = test system: HIA DQβ1 0302 allele in BSM cells; test: Sequence-specific alkylation of a gene in cultured human cells (cell culture crosslinking, LM-PCR); assay type: cell-based
exact complement = test: Tm of 8-mer oligonucleotides with varying A + T content, with and without MGB (Table 11); assay type: binding; conditions: MGB-conjugated 8-mer hybridized with its exact complement
Description: Short oligonucleotides of differing A+T content, conjugated to a MGB, were used to investigate the effect of base composition on Tm for MGB-short oligonucleotide conjugates (Table 11). Tms were determined on a Perkin Elmer) λ2S UV/VIS spectrophotometer, equipped with a PTP-6 temperature controller, using the PECSS software package.

[4] = test system: long single stranded DNA template; test: Primer extension experiment (blockage of T7 DNA polymerase by ODN); assay type: biochemical; conditions: template 5×10^−10 M, primer 4×10^−8 M, blocking ODN 10^−9 M; 15 min at 45° C.; denaturing gel
Description: In this experiment, primer extension occurs with the enzyme T7 DNA polymerase that works from the 5′ end of a template strand. A 16-mer ODN-MGB which was complementary in the Watson Crick sense to a target sequence on the template strand was incubated with a long single stranded DNA template and the T7 DNA polymerase enzyme. […] The minor groove binder was the pyrroloindole tripeptide shown in this application in Table 5. When there was a single mismatch in the sequence specificity of the 16-mer to the target, primer extension was not blocked. Primer extension Was also not blocked when the minor groove binder moiety was attached to the 3′ end of the 16-mer. Primer extension was also not blocked when the sequence specific 16-mer and the free minor groove binder molecule (Compound 3d, not covalently attached to the ODN) was incubated with the template and the enzyme. […] (See Nucleic Acid Research (1993) 21: 5332-5336).
Primer extension reactions were performed as previously described by Lee, et al., (1994) Biochemistry 33: 6024-6030. The final concentrations of template, primer and blocking ODMs were 5×10^−10 M, 4×10^−8 M and 10^−9 M, respectively. Primer extension was carried out for 15 min at 45° C. and the products were analyzed by denaturing gel electrophoresis as described in the reference. […]

| Substance | Tm [1] | further results |
| --- | --- | --- |
| 1 (DNA ATAAAACAGAGGTGAG; DNA, backbone not given here) [compound 1] | 45 °C | – |
| 2 (DNA ATAAAACAGAGG; DNA, backbone not given here) [compound 2] | 39 °C | – |
| 3 (DNA ATAAAACAGA; DNA, backbone not given here) [compound 3] | 24 °C | – |
| 4 (DNA TAATAACGTTCGGGCA; DNA, backbone not given here) [compound 4] | 50 °C | – |
| 5 (DNA ATAACG; DNA, backbone not given here) [compound 5] | 16 °C | – |
| 5'-GGGTTCCCGAGCGGC (chemistry not fully specified) [MGB-conjugated 15-mer, 5′-fluorescein, 3′-TAMRA and CDPI3 probe, all guanine residues replaced by ppG] | – | generation of signal with single-base mismatch [2]: completely suppressed; level of signal with perfect match [2]: no effect on the level of signal |
| 5′-GGTTATTTTTGAAGATACGAATTTCUCCAGAGACACAGCAGGATTTGTCA-CDPI3 [CDPI3-containing 50-mer] | – | alkylation of the targeted site ([3]; 1-50 μM, […], LM-PCR, sequencing gel): had bound to and alkylated the targeted site; efficiency of sequence specific alkylation of the 0302 allele versus the same ODN without the MGB ([3]; […] at 37° C.): 10 fold |
| 5′-MGB-CAATAATA: 8-mer MGB-oligonucleotide conjugate | – | Tm + MGB (exact complement): 45 °C |
| 8 (DNA CGGGCAAA; DNA, backbone not given here) [compound 8] | 25 °C | – |
| 9 (DNA CGGGCAAAGGATTTAA; DNA, backbone not given here) [compound 9] | 47 °C | – |
| 10 (DNA GGCAAA; DNA, backbone not given here) [compound 10] | <17 °C | – |
| 11 (DNA CGGCTCTA; DNA, backbone not given here) [compound 11] | 23 °C | – |
| 12 (DNA CGGCTCTAATCTATTA; DNA, backbone not given here) [compound 12] | 43 °C | – |
| 13 (DNA TATTTTAGATAACCTT; DNA, backbone not given here) [compound 13] | 34 °C | – |
| [3-carbamoyl-1,2-dihydro-3H-pyrrolo[3,2-e]indole-7-carbox]-1-amido-3-propanol Trmer [Compound 3d] | – | blockage of primer extension by T7 DNA polymerase [4]: not blocked |
